Test results: patent publication USH1923H, “Herbicidal (oxaalkyl) phenyl-substituted heterocycles” (FMC Corporation, priority 1998, dated 2000)

Key:
velvetleaf [1] = test: postemergence herbicidal activity on velvetleaf; type: in vivo; conditions: Abutilon theophrasti, post-emergence, 0.3 Kg/Ha, after 12-17 days, read-out: POSTEMERGENCE HERBICIDAL ACTIVITY (% CONTROL) ABUTH
Description: (§1) The (oxaalkyl)phenyl-substituted heterocycles of this invention were tested for pre- and postemergence herbicidal activity using a variety of crops and weeds. The test plants included soybean (Glycine max var. Winchester),field corn (Zea mays var. Pioneer 3732), wheat (Triticum aestivum var. Lew), morningglory (Ipomea lacunosa or Ipomea hederacea), […] (Abutilon theophrasti), green foxtail (Setaria viridis), Johnsongrass (Sorghum halepense), blackgrass (Aloepecurus myosuroides), common chickweed (Stellaria media), and common cocklebur (Xanthium strumarium L.).
(§2) For preemergence testing, two disposable fiber flats (8 cm×15 cm×25 cm) for each rate of application of each candidate herbicide were filled to an approximate depth of 6.5 cm with steam-sterilized sandy loam soil. The soil was leveled and impressed with a template to provide five evenly spaced furrows 13 cm long and 0.5 cm deep in each flat. Seeds of soybean, wheat, corn, green foxtail, and johnsongrass were planted in the furrows of the first flat, and seeds of velvetleaf, morningglory, common chickweed, cocklebur, and blackgrass were planted in the furrows of the second flat. The five-row template was employed to firmly press the seeds into place. A topping soil of equal portions of sand and sandy loam soil was placed uniformly on top of each flat to a depth of approximately 0.5 cm. Flats for postemergence testing were prepared in the same manner except that they were planted 9-14 days prior to the preemergence flats and were placed in a greenhouse and watered, thus allowing the seeds to germinate and the foliage to develop.
(§3) In both pre- and postemergence tests, a stock solution of the candidate herbicide was prepared by dissolving 0.27 g of the compound in 20 mL of water/acetone (50/50) containing 0.5% v/v sorbitan monolaurate. For an application rate of 3000 g/ha of herbicide a 10 mL portion of the stock solution was diluted with water/acetone (50/50) to 45 mL.
(§4) The preemergence flats were initially subjected to a light water spray. The four flats were placed two by two along a conveyor belt (i.e., the two preemergence followed by the two postemergence flats). The conveyor belt fed under a spray nozzle mounted about ten inches above the postemergent foliage. The preemergent flats were elevated on the belt so that the soil surface was at the same level below the spray nozzle as the foliage canopy of the postemergent plants. The spray of herbicidal solution was commenced and once stabilized, the flats were passed under the spray at a speed to receive a coverage equivalent of 1000 L/ha. At this coverage the application rates are those shown in the above table for the individual herbicidal solutions. The preemergence flats were watered immediately thereafter, placed in the greenhouse and watered regularly at the soil surface. The postemergence flats were immediately placed in the green-house and not watered until 24 hours after treatment with the test solution. Thereafter they were regularly watered at ground level. After 12-17 days the plants were examined and the phytotoxicity data were recorded.
(§5) Phytotoxicity data were taken as percent control. Percent control was by a method similar to the 0 to 1 00 rating system disclosed in "Research Methods in Weed Science," 2nd ed., B. Truelove, Ed.; Southern Weed Science Society; Auburn University, Auburn, Ala., 1977.

corn [2] = test: postemergence herbicidal activity on corn; type: in vivo, Zea mays var. Pioneer 3732; conditions: Zea mays, post-emergence, 0.3 Kg/Ha, after 12-17 days, read-out: POSTEMERGENCE HERBICIDAL ACTIVITY (% CONTROL) CRN
Description: as §1, §2, §3, §4, §5

blackgrass [3] = test: preemergence herbicidal activity on blackgrass; type: in vivo, Aloepecurus myosuroides; conditions: Alopecurus myosuroides, pre-emergence, 0.3 Kg/Ha, after 12-17 days, read-out: PREEMERGENCE HERBICIDAL ACTIVITY (% CONTROL) ALOMY
Description: as §1, §2, §3, §4, §5

cocklebur [4] = test: preemergence herbicidal activity on cocklebur; type: in vivo, Xanthium strumarium L.; conditions: Xanthium strumarium, pre-emergence, 0.3 Kg/Ha, after 12-17 days, read-out: PREEMERGENCE HERBICIDAL ACTIVITY (% CONTROL) XANPE
Description: as §1, §2, §3, §4, §5

velvetleaf [5] = test: preemergence herbicidal activity on velvetleaf; type: in vivo; conditions: Abutilon theophrasti, pre-emergence, 0.3 Kg/Ha, after 12-17 days, read-out: PREEMERGENCE HERBICIDAL ACTIVITY (% CONTROL) ABUTH
Description: as §1, §2, §3, §4, §5

green foxtail [6] = test: preemergence herbicidal activity on green foxtail; type: in vivo; conditions: Setaria viridis, pre-emergence, 0.3 Kg/Ha, after 12-17 days, read-out: PREEMERGENCE HERBICIDAL ACTIVITY (% CONTROL) SETVI
Description: as §1, §2, §3, §4, §5

johnsongrass [7] = test: postemergence herbicidal activity on johnsongrass; type: in vivo; conditions: Sorghum halepense, post-emergence, 0.3 Kg/Ha, after 12-17 days, read-out: POSTEMERGENCE HERBICIDAL ACTIVITY (% CONTROL) SORHA
Description: as §1, §2, §3, §4, §5

chickweed [8] = test: postemergence herbicidal activity on chickweed; type: in vivo; conditions: Stellaria media, post-emergence, 0.3 Kg/Ha, after 12-17 days, read-out: POSTEMERGENCE HERBICIDAL ACTIVITY (% CONTROL) STEME
Description: as §1, §2, §3, §4, §5

morningglory [9] = test: postemergence herbicidal activity on morningglory; type: in vivo, Ipomea lacunosa or Ipomea hederacea; conditions: Ipomoea, post-emergence, 0.3 Kg/Ha, after 12-17 days, read-out: POSTEMERGENCE HERBICIDAL ACTIVITY (% CONTROL) IPOSS
Description: as §1, §2, §3, §4, §5

wheat [10] = test: postemergence herbicidal activity on wheat; type: in vivo, Triticum aestivum var. Lew; conditions: Triticum aestivum, post-emergence, 0.3 Kg/Ha, after 12-17 days, read-out: POSTEMERGENCE HERBICIDAL ACTIVITY (% CONTROL) WHT
Description: as §1, §2, §3, §4, §5

corn [11] = test: preemergence herbicidal activity on corn; type: in vivo, Zea mays var. Pioneer 3732; conditions: Zea mays, pre-emergence, 0.3 Kg/Ha, after 12-17 days, read-out: PREEMERGENCE HERBICIDAL ACTIVITY (% CONTROL) CRN
Description: as §1, §2, §3, §4, §5

blackgrass [12] = test: postemergence herbicidal activity on blackgrass; type: in vivo, Aloepecurus myosuroides; conditions: Alopecurus myosuroides, post-emergence, 0.3 Kg/Ha, after 12-17 days, read-out: POSTEMERGENCE HERBICIDAL ACTIVITY (% CONTROL) ALOMY
Description: as §1, §2, §3, §4, §5

chickweed [13] = test: preemergence herbicidal activity on chickweed; type: in vivo; conditions: Stellaria media, pre-emergence, 0.3 Kg/Ha, after 12-17 days, read-out: PREEMERGENCE HERBICIDAL ACTIVITY (% CONTROL) STEME
Description: as §1, §2, §3, §4, §5

morningglory [14] = test: preemergence herbicidal activity on morningglory; type: in vivo, Ipomea lacunosa or Ipomea hederacea; conditions: Ipomoea, pre-emergence, 0.3 Kg/Ha, after 12-17 days, read-out: PREEMERGENCE HERBICIDAL ACTIVITY (% CONTROL) IPOSS
Description: as §1, §2, §3, §4, §5

cocklebur [15] = test: postemergence herbicidal activity on cocklebur; type: in vivo, Xanthium strumarium L.; conditions: Xanthium strumarium, post-emergence, 0.3 Kg/Ha, after 12-17 days, read-out: POSTEMERGENCE HERBICIDAL ACTIVITY (% CONTROL) XANPE
Description: as §1, §2, §3, §4, §5

green foxtail [16] = test: postemergence herbicidal activity on green foxtail; type: in vivo; conditions: Setaria viridis, post-emergence, 0.3 Kg/Ha, after 12-17 days, read-out: POSTEMERGENCE HERBICIDAL ACTIVITY (% CONTROL) SETVI
Description: as §1, §2, §3, §4, §5

soybean [17] = test: postemergence herbicidal activity on soybean; type: in vivo, Glycine max var. Winchester; conditions: Glycine max, post-emergence, 0.3 Kg/Ha, after 12-17 days, read-out: POSTEMERGENCE HERBICIDAL ACTIVITY (% CONTROL) SOY
Description: as §1, §2, §3, §4, §5

soybean [18] = test: preemergence herbicidal activity on soybean; type: in vivo, Glycine max var. Winchester; conditions: Glycine max, pre-emergence, 0.3 Kg/Ha, after 12-17 days, read-out: PREEMERGENCE HERBICIDAL ACTIVITY (% CONTROL) SOY
Description: as §1, §2, §3, §4, §5

wheat [19] = test: preemergence herbicidal activity on wheat; type: in vivo, Triticum aestivum var. Lew; conditions: Triticum aestivum, pre-emergence, 0.3 Kg/Ha, after 12-17 days, read-out: PREEMERGENCE HERBICIDAL ACTIVITY (% CONTROL) WHT
Description: as §1, §2, §3, §4, §5

johnsongrass [20] = test: preemergence herbicidal activity on johnsongrass; type: in vivo; conditions: Sorghum halepense, pre-emergence, 0.3 Kg/Ha, after 12-17 days, read-out: PREEMERGENCE HERBICIDAL ACTIVITY (% CONTROL) SORHA
Description: as §1, §2, §3, §4, §5

## Cc1nn(-c2cc(CC(Cl)C(C)(C)O)c(Cl)cc2F)c(=O)n1C(F)F (centres unmarked) [Compound 2]
Velvetleaf [1]
  activity at 300 g/ha: 100%
Corn [2]
  activity at 300 g/ha: 80%
Blackgrass [3]
  activity at 300 g/ha: 70%
Cocklebur [4]
  activity at 300 g/ha: 60%
Velvetleaf [5]
  activity at 300 g/ha: 100%
Green foxtail [6]
  activity at 300 g/ha: 100%
Johnsongrass [7]
  activity at 300 g/ha: 80%
Chickweed [8]
  activity at 300 g/ha: 70%
Morningglory [9]
  activity at 300 g/ha: 100%
Wheat [10]
  activity at 300 g/ha: 60%
Corn [11]
  activity at 300 g/ha: 80%
Blackgrass [12]
  activity at 300 g/ha: 70%
Chickweed [13]
  activity at 300 g/ha: 90%
Morningglory [14]
  activity at 300 g/ha: 100%
Cocklebur [15]
  activity at 300 g/ha: 55%
Green foxtail [16]
  activity at 300 g/ha: 80%
Soybean [17]
  activity at 300 g/ha: 80%
Soybean [18]
  activity at 300 g/ha: 60%
Wheat [19]
  activity at 300 g/ha: 70%
Johnsongrass [20]
  activity at 300 g/ha: 90%
